# Data taken from patent US20240226066A1, “CARDIOPROTECTION BY AUTOPHAGY INDUCTION AND METABOLIC REPROGRAMMING” (UNIVERSITE PARIS-SACLAY, priority 2021, published 2024).
# Where two headings read alike, the source gives them in different places.
# Legend:
# [1] = test system: LC3II; test: LC3 I/II conversion by western blot in RNVCs; assay type: cell-based, rat; conditions: rapamycin positive control (3 μM)
# Experimental: FIG. 4E: LC3-I/II protein levels in the RNVCs. Data are presented as mean±SEM with single-factor ANOVA, and multiple Sidak comparisons. *, p<0.05, **, p<0.01 with respect to DMSO.
# The H9C2 cells and RNVCs were detached in LB containing: 50 mM Tris, 150 mM NaCl, 1 mM EDTA, 0.5% deoxycholate, 1% Triton X 100, 0.1% SDS (pH 8.0). The cells were collected and placed on ice for 30 minutes. The cells were then centrifuged at 2000 g for 20 minutes at for 4° C. The supernatant was transferred to a new tube and stored on ice. The protein concentration was determined by BCA assay. The protein samples were diluted with sample buffer (2× Laemmli, Sigma), mixed, and heated for 5 minutes at 95° C. […] The images were recorded with a gel imaging system (Bio Rad). […]
# Next, the hypothesis that the compounds could protect cardiac cells by activating autophagy, a catabolic process conserved in evolution that involves the degradation of damaged cytoplasmic components, was formulated. […] Then, the cells were treated with the hits and with H2O2 for 2 hours and their survival was analyzed 4 hours later by measuring LDH release (FIGS. 4B, 4C). […] In order to confirm the induction of autophagy by another approach, the RNVCs were transfected with a GFP-LC3 plasmid and the formation of the autophagosome was monitored 24 hours later. […]
# [2] = test system: A549 lung cancer cell line; test: Influence of hits on growth of A549 cancer cells (total LDH after lysis); assay type: cell-based; conditions: 48 h
# Experimental: The cells were cultured for 6 h in the presence or absence of the hits, and then for 42 h. Finally, the cells were lysed with lysis buffer and the amount of LDH was measured to evaluate the total cell growth.
# A colorimetric assay was used to measure lactate dehydrogenase (LDH), a cytosolic enzyme which is released during permeabilization of the plasma membrane (Promega G1780). The assay was performed using cell culture supernatants obtained from H9C2 or RNVC (rat neonatal ventricular myocyte) cells and lysis buffer (LB) was used as a positive control for total cell lysis. The LDH release was measured by absorbance reading at 490 nm (Infinite spectrofluorimeter, Tecan).
# The effect of the compounds was then evaluated on primary rat neonatal ventricular cardiomyocytes (RNVCs) using the LDH test and propidium iodide staining. […] The absence of proliferative effects of the compounds was also evaluated on the A549 lung cancer cell line for 48 h (FIG. 2C).
# [3] = test system: RNVCs; test: Mitochondrial network and cell volume by confocal microscopy (Mitotracker, calcein-AM, IMARIS); assay type: cell-based, rat; conditions: for effect on the mitochondrial network / number of mitochondria: 1 and 10 μM, 6 h
# Experimental: FIG. 6. Effects on mitochondrial dynamics by fluorescence microscopy The RNVCs were treated with 1 μM hits (FIG. 6A) and 10 μM hits (FIG. 6B) for 6 h and the mitochondrial network was stained with 200 nM of Mitotracker. The mitochondrial network and individual mitochondria were then analyzed using a Leica confocal microscope and IMARIS software. Data are presented as mean±SEM with single-factor ANOVA, and multiple Sidak comparisons. *, p<0.05, **, p<0.01, ***, p<0.001 with respect to DMSO.
# FIG. 11: following the treatment of the RNVCs with the compounds as indicated, the cell volume was stained with 4 μM of calcein-AM. The cell volume was then analyzed using the IMARIS software.
# Confocal microscopy. On day 0, 4×10^5 neonatal cardiomyocytes were plated overnight on laminin-coated 35 mm culture dishes (10 μg/ml). On day 1, the cells were treated with various compounds at 1 or 10 μM for 6 hours. The cells were incubated with Mitotracker Red 580 at 200 nM for 20 minutes at 37° C., then 4 μM of calcein (Calcein AM, Life Technologies, St Aubin, France) for 10 minutes at 37° C. The images were acquired with a Leica confocal microscope (SP5) (Mannheim, Germany). The mitochondrial network and the 3D model of cell volume were reconstructed using the IMARIS software (Bitplane Company, Zurich, Switzerland); therefore the cell volume, mitochondrial number and volume were analyzed.
# Due to the importance of mitochondria and reactive oxygen species (ROS) levels in the fate of cardiomyocyte cells, the hypothesis that the compounds could impact the mitochondrial network was explored. Following treatment of the RNVCs with the compounds tested, the mitochondrial network was stained with 200 nM of Mitotracker and the cell volume with 4 μM of calcein-AM. Thus, the mitochondrial network and the individual mitochondria were then analyzed using the IMARIS software.
# [4] = test system: H9C2 cells; test: Seahorse XF Cell Mito stress test (OCR); assay type: cell-based, rat; conditions: glucose and pyruvate as substrates, 6 h
# Experimental: FIG. 8B: the H9c2 cells were treated with the compounds for 6 h, then a mitochondrial respiration stress test was carried out.
# The XFe96 extracellular flow analyzer (Seahorse Biosciences, North Billerica, MA, USA) was used to measure the bioenergetic function of H9C2 cardiomyocytes. The H9C2 cells were seeded at 20 000 cells per well in XF96 cell culture microplates; all the pretreatments were carried out with serum-free cell culture medium. The Agilent Seahorse XF glycolysis stress test was performed to measure glycolytic function in the H9C2 cells; the extracellular acidification rate (ECAR) was measured sequentially by 3 injections, 10 mM glucose, 2 μM oligomycin and 50 mM 2-deoxy-D-glucose (2-DG). The Agilent Seahorse XF Cell Mito stress test measured key parameters of mitochondrial function by directly measuring the oxygen consumption rate (OCR) of the H9C2 cells. The test used the built-in injection ports on XF sensor cartridges to add respiration modulators into the cell well during the test in order to reveal key parameters of mitochondrial function. Oligomycin at 2 μM was injected first after the baseline measurements. Then 1 μM of […] (FCCP) was injected. The third injection corresponds to 0.5 μM of antimycin A, to stop mitochondrial respiration. The oxidation of the exogenous fatty acids was measured simultaneously using the XF palmitate-BSA FAO substrate kit with the mitochondrial stress test on XF cells. The substrate-limited medium is DMEM with 0.5 mM glucose, 1 mM GlutaMAX, 0.5 mM carnitine and 1% fetal calf serum. Carnitine was added freshly on the day of the change of medium. The FAO test medium contains 111 mM NaCl, 4.7 mM KCl, 1.25 mM CaCl2, 2 mM MgSO4, 1.2 mM NaH2PO4, supplemented with 2.5 mM glucose, 0.5 mM carnitine and 5 mM HEPES on the day of the test, adjusted to pH 7.4 at 37° C. The H9C2 cells were seeded at 20 000 cells per well in XF96 cell culture microplates. […]
# (§1) Next, the energy metabolism was analyzed in real time using the Seahorse technology in H9C2 cells.
# [5] = test system: RNVCs; test: Mitochondrial ROS production with MitoSOX fluorescent probe; assay type: cell-based, rat; conditions: 1 μM, 6 h
# Experimental: FIG. 12: The RNVCs were treated with 0.1% DMSO, 3 μM rapamycin, 1 μM digitoxigenin, 1 μM digoxin, 1 μM minaprin, 1 μM VP331, 1 μM LOPA87, 10 μM SG6163F for 6 h, then the ROS production was stained with the MitoSOX fluorescent probe.
# The RNVCs were treated with 0.01% DMSO, 3 μM rapamycin, […], 1 μM digoxin, 1 μM minaprine, 1 μM VP331, 1 μM LOPA87, 10 μM SG6163F in a serum-free cell culture medium for 6 hours. The contents (50 μg) of a MitoSOX™ mitochondrial superoxide indicator vial (ThermoFisher, M36008) were dissolved in 13 μl dimethyl sulfoxide (DMSO) to prepare a 5 mM MitoSOX™ reagent stock solution. Next, the 5 mM MitoSOX™ reagent stock solution in PBS was diluted to prepare a 5 μM working solution of MitoSOX™ reagent. After treatment, the cells were rinsed twice with hot PBS and then incubated with a MitoSOX reagent working solution for 10 minutes at 37° C. The cells were gently rinsed three times with hot PBS. Red fluorescence was detected with a Leica confocal microscope. Nuclear fluorescence was suppressed and mitochondrial fluorescence intensity was measured using ImageJ software.
# ROSs are produced or accumulated as a by-product of mitochondrial activity metabolism. Thus, the ROSs may be a consequence of mitochondrial function or may reflect a defect in the mitochondrial antioxidant system.
# [6] = target: T1, hERG potassium channel (Homo sapiens, UniProt Q12809); test: hERG channel binding assay ([3H]dofetilide displacement); conditions: for inhibition at 10 µM: human, probe [3H]dofetilide
# T1 construct: Eurofins
# Experimental: The evaluation of the binding of the compounds to the human hERG potassium channel was carried out as described previously (Eurofins).
# Since the blocking of the human potassium channel hERG channel may be responsible for cardiac fibrillation leading to cardiac arrest and death of the patient, the binding of the 3 molecules SG6163F, VP331 and LOPA87 to this receptor was evaluated.
# [7] = test system: H9C2 cells; test: Exogenous fatty acid oxidation (XF palmitate-BSA FAO substrate with mito stress test); assay type: cell-based, rat; conditions: fatty acids as substrate
# Experimental: FIG. 8C: the oxidation of the exogenous fatty acids was measured simultaneously using the XF palmitate-BSA FAO substrate kit with the mito stress test on XF cells. Before starting the test, 30 μL of XF palmitate-BSA CAM or BSA control substrate were added to the appropriate wells.
# The XFe96 extracellular flow analyzer (Seahorse Biosciences, North Billerica, MA, USA) was used to measure the bioenergetic function of H9C2 cardiomyocytes. The H9C2 cells were seeded at 20 000 cells per well in XF96 cell culture microplates; all the pretreatments were carried out with serum-free cell culture medium. The Agilent Seahorse XF glycolysis stress test was performed to measure glycolytic function in the H9C2 cells; the extracellular acidification rate (ECAR) was measured sequentially by 3 injections, 10 mM glucose, 2 μM oligomycin and 50 mM 2-deoxy-D-glucose (2-DG). The Agilent Seahorse XF Cell Mito stress test measured key parameters of mitochondrial function by directly measuring the oxygen consumption rate (OCR) of the H9C2 cells. […] The oxidation of the exogenous fatty acids was measured simultaneously using the XF palmitate-BSA FAO substrate kit with the mitochondrial stress test on XF cells. […]
# as §1
# T1 sequence (Q12809 whole entry): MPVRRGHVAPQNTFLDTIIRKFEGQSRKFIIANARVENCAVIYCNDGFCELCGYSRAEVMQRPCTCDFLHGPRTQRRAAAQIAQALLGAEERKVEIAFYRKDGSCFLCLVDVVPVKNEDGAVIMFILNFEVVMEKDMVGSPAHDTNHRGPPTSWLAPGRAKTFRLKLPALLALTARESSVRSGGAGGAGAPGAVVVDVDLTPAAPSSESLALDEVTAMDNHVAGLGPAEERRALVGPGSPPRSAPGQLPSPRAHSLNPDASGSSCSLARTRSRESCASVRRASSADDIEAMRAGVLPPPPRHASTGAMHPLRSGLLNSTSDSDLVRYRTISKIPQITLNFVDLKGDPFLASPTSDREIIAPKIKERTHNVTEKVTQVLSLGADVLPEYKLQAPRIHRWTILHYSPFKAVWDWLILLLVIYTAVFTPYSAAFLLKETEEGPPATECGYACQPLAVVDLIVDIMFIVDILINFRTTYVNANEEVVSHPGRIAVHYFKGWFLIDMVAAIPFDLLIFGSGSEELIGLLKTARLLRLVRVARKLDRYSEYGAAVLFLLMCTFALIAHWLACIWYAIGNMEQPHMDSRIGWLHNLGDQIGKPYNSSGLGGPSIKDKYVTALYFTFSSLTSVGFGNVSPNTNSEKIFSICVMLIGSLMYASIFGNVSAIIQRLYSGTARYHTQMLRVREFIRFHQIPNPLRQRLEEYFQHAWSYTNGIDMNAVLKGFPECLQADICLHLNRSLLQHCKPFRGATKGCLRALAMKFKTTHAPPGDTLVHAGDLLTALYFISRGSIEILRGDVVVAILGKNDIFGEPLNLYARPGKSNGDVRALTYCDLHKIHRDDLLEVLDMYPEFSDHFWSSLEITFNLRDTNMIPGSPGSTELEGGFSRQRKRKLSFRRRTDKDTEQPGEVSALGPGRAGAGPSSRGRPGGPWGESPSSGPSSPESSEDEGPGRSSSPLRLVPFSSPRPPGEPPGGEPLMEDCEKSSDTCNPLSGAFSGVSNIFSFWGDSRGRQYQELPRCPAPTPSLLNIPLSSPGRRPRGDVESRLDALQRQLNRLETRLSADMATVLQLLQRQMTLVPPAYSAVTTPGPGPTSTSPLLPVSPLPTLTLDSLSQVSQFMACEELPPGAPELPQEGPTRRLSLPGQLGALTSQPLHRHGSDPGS
smiles,measurement,setting,value
"CO[C@H]1C[C@@H]2CC[C@@H](C)[C@@](O)(O2)C(=O)C(=O)N2CCCC[C@H]2C(=O)O[C@H]([C@H](C)C[C@@H]2CC[C@@H](O)[C@H](OC)C2)CC(=O)[C@H](C)/C=C(\C)[C@@H](O)[C@@H](OC)C(=O)[C@H](C)C[C@H](C)/C=C/C=C/C=C/1C [rapamycin, reference compound]",increase in level of expression of LC3II,[1],> 1.4 fold
Cc1cc(-c2ccccc2)nnc1NCCN1CCOCC1 [minaprine],effect on A549 cell growth,[2],significantly reduced cell growth and induced cell death
same,mitochondrial mass,[3]; 10 μM,decreased the mitochondrial mass
same,effect on the mitochondrial network,[3],no effect
same,number of mitochondria,[3],no effect
same,ATP production by oxidative phosphorylation (OXPHOS),[4],improved ATP production by oxidative phosphorylation
same,local level of mitochondrial superoxide anion,[5],induced an elevation
COc1ccc(C)cc1/C=N/[C@@H]1C[C@@H]2C[C@H]([C@H]1C)C2(C)C [VP331],effect on A549 cell growth,[2],no proliferative effect
same,effect on the mitochondrial network,[3],no effect
same,number of mitochondria,[3],no effect
same,local level of mitochondrial superoxide anion,[5],induced an elevation
same,inhibition at 10 µM,"[6]; inhibition of tritiated dofetilide binding, only values >50% considered effective, read-out: % inhibit 1st assay",-4%
same,inhibition at 10 µM,"[6]; inhibition of tritiated dofetilide binding, only values >50% considered effective, read-out: % inhibit 2nd assay",5.4%
same,inhibition at 10 µM,"[6]; mean of two independent measurements, read-out: % inhibit Mean",0.7%
same,binding to the hERG channel,[6]; inhibition of specific binding of [3H]dofetilide in vitro,negligible
same,oxidative phosphorylation,[7],improved oxidative phosphorylation
